Test results as given in PubChem BioAssay (NCI).
Where “and” joins values, the source holds several entries; their conditions need not be identical. Identical values can stand only once.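 Results reflect a 48-hour exposure of cells in 96-well plates to compound at five concentrations. TGI denotes the concentration required for complete inhibition of growth.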

Columns and labels:
Assay in all cases: NCI anticancer screen, dose series, 48 h
[1] = system: DMS 114 small cell lung
[2] = system: HT29 colon
[3] = system: K-562 leukemia
[4] = system: KM12 colon
[5] = system: KM20L2 colon
[6] = system: NCI-H226 lung
[7] = system: NCI-H522 lung
[8] = system: SF-268 CNS
[9] = system: SNB-75 CNS
[10] = system: XF 498 CNS
[11] = system: DU-145 prostate
[12] = system: MDA-N

Structure (SMILES)	TGI [1] [µM]	TGI [2]	TGI [3] [µM]	TGI [4]	TGI [5] [µM]	TGI [6]	TGI [7]	TGI [8]	TGI [9]	TGI [10] [µM]	TGI [11]	TGI [12]
COc1ccccc1NC(=O)C(=O)C(C(=O)c1ccccc1F)C1OC(=O)c2ccccc21 (centres undefined)	64.3	62.5 µM	> 100	64 µM	58.2	43.8 µM	35.7 µM	> 100 µM	62.8 µM	> 100	–	–
NC(=O)CCC(N=c1c2ccccc2n(O)c2ccccc12)C(=O)O (centres undefined)	> 100	–	> 100	> 100 µM	> 100	> 100 µM	> 100 µM	> 100 µM	> 100 µM	–	–	–
CC1=C(CO)C(=O)OC(C(C)C2CCC3C4CC5OC56C(O)C(N5CC5)=CC(=O)C6(C)C4CCC23C)C1 (centres undefined)	5.85	13.7 µM	14.2	5.01 µM	9.87	29.1 µM	3.36 µM	15.5 µM	18.6 µM	16.4	–	–
CN(CCCCCl)P(=O)(OCc1ccc([N+](=O)[O-])o1)OCC1OC(n2ccc(N)nc2=O)C(O)C1O (centres undefined)	–	41.4 µM	> 100	34.6 µM	–	> 100 µM	24.3 µM	> 100 µM	5.59 µM	–	44.6 µM	40.3 µM
CC(C)(CO[C@H]1C[C@H]2CC[C@@]1(C)C2(C)C)[N+](=O)[O-]	–	30.6 µM	35	32.4 µM	–	36.1 µM	40.5 µM	> 100 µM	45.1 µM	–	49.2 µM	29.4 µM
COc1cccc2c1C(=O)c1c(O)c3c(c(O)c1C2=O)C[C@@](O)(C(C)=O)CC3OC1CC(OC2CC(N)C(O)C(C)O2)C(O)C(C)O1 (some centres undefined)	–	> 100 µM	> 100	> 100 µM	–	> 100 µM	> 100 µM	> 100 µM	85.7 µM	–	> 100 µM	> 100 µM
Nc1c(C(=O)c2ccc(Cl)c(Cl)c2)[nH]c(NCc2ccccc2)c1C(=S)Nc1ccccc1	–	11 µM	> 100	10.5 µM	–	31.4 µM	17.7 µM	31.5 µM	24.1 µM	–	32.4 µM	14.5 µM
FC1=C2C3CCC(C3)C2C1(F)F (centres undefined)	–	> 100 µM	> 100	> 100 µM	–	> 100 µM	> 100 µM	> 100 µM	> 100 µM	–	> 100 µM	> 100 µM
CC(=O)NC1C(OCc2ccccc2)OC(CO)C(O)C1OC(C)C(=O)N[C@@H](C)C(=O)N[C@H](CCC(=O)NCCNCCNc1c2ccccc2nc2cccc([N+](=O)[O-])c12)C(N)=O (some centres undefined)	–	0.668 µM	> 100	0.352 µM	–	0.716 µM	0.0665 µM	2.14 µM	0.883 µM	–	0.231 µM	0.305 µM
O=C(Nc1ccccc1)N1CCN(C(=O)Nc2ccccc2)C1=S	–	> 100 µM	> 100	> 100 µM	–	70.5 µM	> 100 µM	47.8 µM	47.2 µM	–	> 100 µM	> 100 µM
CC1=NN(C(=O)CC(=O)Nc2cccc(C)c2)C(=O)C1N=Nc1ccc(S(=O)(=O)CCOS(=O)(=O)O)cc1 (centres undefined)	–	11.5 µM	> 100	13.9 µM	–	6.79 µM	0.835 µM	28 µM	19.7 µM	–	> 100 µM	0.902 µM
ClC1=NN=C(c2c[nH]c3ccccc23)CC1NCc1ccccc1 (centres undefined)	–	> 100 µM	> 100	> 100 µM	–	> 100 µM	> 100 µM	> 100 µM	> 100 µM	–	> 100 µM	> 100 µM
Clc1ccc2c(NCCCCCCNc3ccnc4cc(Cl)ccc34)ccnc2c1	3.34	4.44 µM	4.98	7.88 µM	4.39	25.3 µM	3.19 µM	24.8 µM	8.61 µM	2.96	14.1 µM	8.86 µM
CCOC(=O)c1cc(-c2ccc(OC)cc2)c([N+](=O)[O-])[nH]1	–	> 10 µM	> 10	> 10 µM	–	> 10 µM	> 10 µM	> 10 µM	> 10 µM	–	> 10 µM	> 3.16 µM
Oc1ccc(C(O)C2CCCCN2)cc1O (centres undefined)	–	> 100 µM	> 100	> 100 µM	–	> 100 µM	> 100 µM	> 100 µM	> 100 µM	–	> 100 µM	> 100 µM
COC(=O)C1OC(O[C@H]2CC[C@]3(C)[C@H]4CC=C5[C@@H]6CC(C)(C)CC[C@]6(C(=O)OC6OCC(O)C(O)C6OC6OC(C)C(OC7OCC(O)C(O)C7O)C(O)C6O)[C@H](O)C[C@@]5(C)[C@]4(C)CC[C@H]3C2(C)C)C(O)C(O)C1O (some centres undefined)	–	9.7 µM and 15.3 µM	> 100	13.1 µM and 13 µM	–	13.9 µM and 24.8 µM	6.84 µM and 5.14 µM	22.4 µM and 23.2 µM	18.5 µM and 20.9 µM	–	> 57.7 µM and 26.5 µM	3.77 µM and 12.1 µM
COc1ccc(CCNC(=O)Cc2ccccc2CO)cc1OC	–	> 100 µM	> 100	> 100 µM	–	> 100 µM	> 100 µM	> 100 µM	> 100 µM	–	> 100 µM	> 100 µM
NC(=O)[C@H](Cc1ccc(O)cc1)Nc1c(O)c2c(c(O)c1Cl)C(=O)C=CC2=O	–	6.2 µM	5.37	> 6.81 µM	–	> 10 µM	4.01 µM	> 10 µM	> 10 µM	–	> 10 µM	4.1 µM
O=C(CNc1ccccc1C(=O)O)Nn1cnc2ccc(S(=O)(=O)Nc3ccccc3C(=O)O)cc2c1=O	–	> 100 µM	> 100	> 100 µM	–	> 100 µM	> 100 µM	> 100 µM	> 100 µM	–	> 100 µM	> 100 µM
CC(=O)CC1(CBr)Nc2ccc([N+](=O)[O-])cc2NC1=O (centres undefined)	–	> 100 µM	> 100	> 100 µM	–	> 100 µM	41.6 µM	> 100 µM	> 100 µM	–	> 100 µM	> 100 µM
